US20240148821A1, “PHARMACEUTICAL USE OF CYCLIC PEPTIDE COMPOUND” (CHUGAI SEIYAKU KABUSHIKI KAISHA, priority 2021, published 2024)
Numbered stars: 1 amine (or outer) side, 2 acyl side, 3 side chain; on linkers, the order of the positions; unused ones are H or OH. Bridge positions count the residues as written; N and C are the ends. Square brackets hold non-standard residues; d marks the D form. Peptide text beside a SMILES is read from it. * marks the point of attachment. NMeAbu(3,3-F2-piperidino) = CN[C@@H](CCN1CCCC(F)(F)C1)C(=O)O; hPhe(3-Cl-4-CF3) = N[C@@H](CCc1ccc(C(F)(F)F)c(Cl)c1)C(=O)O; NMePhe(4-Me) = CN[C@@H](Cc1ccc(C)cc1)C(=O)O; NMePhe(4-F) = CN[C@@H](Cc1ccc(F)cc1)C(=O)O; NMedβ3hAla = C[C@H](CC(=O)[*:2])N(C)[*:1]; NMeGly(cPent) = CN[C@H](C(=O)O)C1CCCC1; Phe(3-I) = N[C@@H](Cc1cccc(I)c1)C(=O)O; NMeCha = CN[C@@H](CC1CCCCC1)C(=O)O; NMeChg = CN[C@H](C(=O)O)C1CCCCC1; NMeF = CN[C@@H](Cc1ccccc1)C(=O)O; NMeD = CN[C@@H](CC(=O)O)C(=O)O; NMeL = CN[C@@H](CC(C)C)C(=O)O; NMeV = CN[C@H](C(=O)O)C(C)C; d(β3hA) = C[C@@H](N)CC(=O)O; NMeS = CN[C@@H](CO)C(=O)O; Morpholide = C1CN(*)CCO1; NMeA = CN[C@@H](C)C(=O)O; NMeAib = CNC(C)(C)C(=O)O; Piperidide = C1CCN(*)CC1; Ac5c = NC1(C(=O)O)CCCC1; Aze = O=C(O)[C@@H]1CCN1; CH2CMe2OH = CC(C)(O)C*; X113 = Fc1cncc(C*)c1; βAla = NCCC(=O)O; Sar = CNCC(=O)O

Tested on: Human pancreatic cancer cell line AsPC-1 (G12D mutation Kras)
Assay: AsPC-1 cell growth inhibition (AsPC-1 CGI)
Format: cell-based
Conditions: read-out: AsPC-1 cell growth inhibition, 50% growth inhibitory concentration (IC50 value); 96 hours, CellTiter-Glo, values classified in ranges
Protocol: Test compounds were serially dilated with dimethyl sulfoxide, and 200 nL was then dispensed to a U-bottom 96-well plate using Labcyte Echo. […] The cell suspension was dispensed to a. plate containing a test compound at 100 μL per well and incubated at 37° C. in a 5% carbon dioxide gas incubator. 96 hours later, 80 μL of CellTiter-Glo (Promega) was added to each well and fluorescence was measured.

Compound | IC50 [nM]
CC[C@H](C)[C@@H]1NC(=O)[C@H](CC(C)C)N(C)C(=O)C[C@@H](C(=O)N2CCCCC2)N(C)C(=O)[C@H](CC(C)C)NC(=O)[C@H](Cc2ccccc2)N(C)C(=O)[C@H](C)NC(=O)[C@H](Cc2cccc(I)c2)NC(=O)CN(C)C(=O)[C@H](Cc2ccc(C)cc2)N(C)C(=O)CN(C)C(=O)CN(C)C1=O [Compound 619] ([NMeL]I[Sar][Sar][NMePhe(4-Me)][Sar][Phe(3-I)]A[NMeF]L[NMeD]-Piperidide; lactam N-11) | > 500
CC[C@H](C)[C@@H]1NC(=O)[C@H](C)N(C)C(=O)C[C@@H](C)N(C)C(=O)[C@H](CC(C)C)NC(=O)C(C)(C)N(C)C(=O)[C@H](CC(C)C)NC(=O)[C@H](CCc2ccc(C(F)(F)F)c(Cl)c2)NC(=O)CN(C)C(=O)[C@H](CC2CCCCC2)N(C)C(=O)[C@@H]2CCN2C(=O)CN(C)C1=O [Compound 1387] (cyclo([Aze][NMeCha][Sar][hPhe(3-Cl-4-CF3)]L[NMeAib]L[NMedβ3hAla][NMeA]I[Sar])) | > 500
CC[C@H](C)[C@@H]1NC(=O)[C@H](CC(C)C)N(C)C(=O)C[C@@H](C(=O)N(C)C)N(C)C(=O)[C@H](C2CCCC2)N(C)C(=O)[C@H](C(C)C)NC(=O)[C@H](CCN2CCCC(F)(F)C2)N(C)C(=O)[C@H](CCc2ccc(C(F)(F)F)c(Cl)c2)NC(=O)CN(C)C(=O)[C@H](CC2CCCCC2)N(C)C(=O)[C@@H]2CCN2C(=O)[C@H](C)N(C)C1=O [Compound 389] ([NMeL]I[NMeA][Aze][NMeCha][Sar][hPhe(3-Cl-4-CF3)][NMeAbu(3,3-F2-piperidino)]V[NMeGly(cPent)][NMeD]-NMe2; lactam N-11) | > 500
CC(C)C[C@H]1C(=O)N[C@@H]([C@@H](C)O)C(=O)N(C)CC(=O)N(C)CC(=O)N(C)[C@@H](CC2CCCCC2)C(=O)N(C)CC(=O)N[C@@H](CCc2ccc(C(F)(F)F)c(Cl)c2)C(=O)N2CCC[C@H]2C(=O)NC2(CCCC2)C(=O)N(C)[C@@H](C2CCCCC2)C(=O)N(C)[C@H](C(=O)N2CCCCC2)CC(=O)N1C [Compound 603] ([NMeL]T[Sar][Sar][NMeCha][Sar][hPhe(3-Cl-4-CF3)]P[Ac5c][NMeChg][NMeD]-Piperidide; lactam N-11) | > 500
CC[C@H](C)[C@@H]1NC(=O)[C@H](C)N(C)C(=O)C[C@@H](C)NC(=O)[C@H](C(C)C)N(C)C(=O)C2(CCCC2)NC(=O)[C@@H]2CCCN2C(=O)[C@H](CCc2ccc(C(F)(F)F)c(Cl)c2)NC(=O)CN(C)C(=O)[C@H](Cc2ccc(F)cc2)N(C)C(=O)[C@@H]2CCCN2C(=O)CN(C)C1=O [Compound 1732] (cyclo([Ac5c][NMeV][d(β3hA)][NMeA]I[Sar]P[NMePhe(4-F)][Sar][hPhe(3-Cl-4-CF3)]P)) | > 500
CC[C@H](C)[C@@H]1NC(=O)CCNC(=O)[C@H](COCC(C)(C)O)N(C)C(=O)[C@H](C2CCCCC2)N(C)C(=O)C2(CCCC2)NC(=O)[C@@H]2CCCN2C(=O)[C@H](CCc2ccc(C(F)(F)F)c(Cl)c2)NC(=O)CN(C)C(=O)[C@H](CC2CCCCC2)N(C)C(=O)CN(C)C(=O)CN(C)C1=O [Compound 605] (cyclo([Ac5c][NMeChg][NMeS](CH2CMe2OH)[βAla]I[Sar][Sar][NMeCha][Sar][hPhe(3-Cl-4-CF3)]P)) | > 500
CC[C@H](C)[C@@H]1NC(=O)[C@H](CC(C)C)N(C)C(=O)C[C@@H](C)NC(=O)[C@H](C(C)C)N(C)C(=O)C2(CCCC2)NC(=O)[C@@H]2CCCN2C(=O)[C@H](CCc2ccc(C(F)(F)F)c(Cl)c2)NC(=O)[C@H]2CCCN2C(=O)[C@H](CC2CCCCC2)N(C)C(=O)CN(C)C(=O)CN(C)C1=O [Compound 76] (cyclo([Ac5c][NMeV][d(β3hA)][NMeL]I[Sar][Sar][NMeCha][dP][hPhe(3-Cl-4-CF3)]P)) | > 500
CC[C@H](C)[C@@H]1NC(=O)[C@H](CC(C)C)N(C)C(=O)C[C@@H](C(=O)N2CCCCC2)N(C)C(=O)[C@H](C2CCCCC2)N(C)C(=O)C2(CCCC2)NC(=O)[C@H](COCc2cncc(F)c2)N(C)C(=O)[C@H](CCc2ccc(C(F)(F)F)c(Cl)c2)NC(=O)CN(C)C(=O)[C@H](CC2CCCCC2)N(C)C(=O)CN(C)C(=O)CN(C)C1=O [Compound 950] ([NMeL]I[Sar][Sar][NMeCha][Sar][hPhe(3-Cl-4-CF3)][NMeS](X113)[Ac5c][NMeChg][NMeD]-Piperidide; lactam N-11) | > 500
CC[C@H](C)[C@@H]1NC(=O)[C@H](CC(C)C)N(C)C(=O)C[C@@H](C(=O)N2CCOCC2)N(C)C(=O)[C@H](C2CCCCC2)N(C)C(=O)C2(CCCC2)NC(=O)[C@@H]2CCCN2C(=O)[C@H](CCc2ccc(C(F)(F)F)c(Cl)c2)NC(=O)CN(C)C(=O)[C@H](CC2CCCCC2)N(C)C(=O)CN(C)C(=O)CN(C)C1=O [Compound 1333] ([NMeL]I[Sar][Sar][NMeCha][Sar][hPhe(3-Cl-4-CF3)]P[Ac5c][NMeChg][NMeD]-Morpholide; lactam N-11) | ≤ 20
CC[C@H](C)[C@@H]1NC(=O)[C@H](C)N(C)C(=O)C[C@@H](C(=O)N2CCCCC2)N(C)C(=O)[C@H](C(C)C)N(C)C(=O)C2(CCCC2)NC(=O)[C@H](Cc2ccc(F)cc2)N(C)C(=O)[C@H](CCc2ccc(C(F)(F)F)c(Cl)c2)NC(=O)CN(C)C(=O)[C@H](CC2CCCCC2)N(C)C(=O)CN(C)C(=O)CN(C)C1=O [Compound 821] ([NMeA]I[Sar][Sar][NMeCha][Sar][hPhe(3-Cl-4-CF3)][NMePhe(4-F)][Ac5c][NMeV][NMeD]-Piperidide; lactam N-11) | > 500
